Data as given in US12509431B2, “1,4-dihydroquinazolinone compounds and uses thereof” (Edgewise Therapeutics, Inc., priority 2022, dated 2025).

Tests used:
Type in all cases: biochemical
Conditions in all cases: Table 8
[1] = test system: Rabbit Skeletal myofibrils (rabbit psoas muscle); experiment: Myofibril ATPase assay (PK/LDH NADH-coupled), skeletal myofibrils
Method in brief: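 ATPase rate taken as linear-regression slope of A340 (NADH depletion through PK/LDH coupling) over a 75 min kinetic read, with psoas-derived rabbit skeletal myofibrils at pH 7.0. Four-parameter fits of vehicle-normalized activity give EC25 and, where reached, EC50.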

Porcine Atria myofibrils = experiment: Myofibril ATPase assay (PK/LDH NADH-coupled), atria myofibrils
Method in brief: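 Values are EC25% (and, for inhibitors, EC50%) from 4-parameter logistic fits of activity normalized to vehicle wells. Rates came from linear regression of 340 nm kinetic reads (every 1.5-2 min, 75 min) of NADH-coupled ATP turnover by porcine atria myofibrils.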

[2] = target: T1, Porcine Ventricle myofibrils (left ventricle of Yucatan minipigs) (Sus scrofa, UniProt P79293); experiment: Myofibril ATPase assay (PK/LDH NADH-coupled), ventricle myofibrils
T1 construct: Myofibrils from porcine cardiac muscle was isolated from the left ventricle of Yucatan minipigs; tissue Exemplar Genetics; host or cells: left ventricle of Yucatan minipigs
Method in brief: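 NADH depletion (A340) coupled through pyruvate kinase/lactate dehydrogenase reports ATPase rate of porcine left-ventricle myofibrils over 75 min kinetic reads. Regression slopes, vehicle-normalized, fitted by 4-parameter logistic give EC25 and, where available, EC50.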

T1 sequence (P79293 whole entry): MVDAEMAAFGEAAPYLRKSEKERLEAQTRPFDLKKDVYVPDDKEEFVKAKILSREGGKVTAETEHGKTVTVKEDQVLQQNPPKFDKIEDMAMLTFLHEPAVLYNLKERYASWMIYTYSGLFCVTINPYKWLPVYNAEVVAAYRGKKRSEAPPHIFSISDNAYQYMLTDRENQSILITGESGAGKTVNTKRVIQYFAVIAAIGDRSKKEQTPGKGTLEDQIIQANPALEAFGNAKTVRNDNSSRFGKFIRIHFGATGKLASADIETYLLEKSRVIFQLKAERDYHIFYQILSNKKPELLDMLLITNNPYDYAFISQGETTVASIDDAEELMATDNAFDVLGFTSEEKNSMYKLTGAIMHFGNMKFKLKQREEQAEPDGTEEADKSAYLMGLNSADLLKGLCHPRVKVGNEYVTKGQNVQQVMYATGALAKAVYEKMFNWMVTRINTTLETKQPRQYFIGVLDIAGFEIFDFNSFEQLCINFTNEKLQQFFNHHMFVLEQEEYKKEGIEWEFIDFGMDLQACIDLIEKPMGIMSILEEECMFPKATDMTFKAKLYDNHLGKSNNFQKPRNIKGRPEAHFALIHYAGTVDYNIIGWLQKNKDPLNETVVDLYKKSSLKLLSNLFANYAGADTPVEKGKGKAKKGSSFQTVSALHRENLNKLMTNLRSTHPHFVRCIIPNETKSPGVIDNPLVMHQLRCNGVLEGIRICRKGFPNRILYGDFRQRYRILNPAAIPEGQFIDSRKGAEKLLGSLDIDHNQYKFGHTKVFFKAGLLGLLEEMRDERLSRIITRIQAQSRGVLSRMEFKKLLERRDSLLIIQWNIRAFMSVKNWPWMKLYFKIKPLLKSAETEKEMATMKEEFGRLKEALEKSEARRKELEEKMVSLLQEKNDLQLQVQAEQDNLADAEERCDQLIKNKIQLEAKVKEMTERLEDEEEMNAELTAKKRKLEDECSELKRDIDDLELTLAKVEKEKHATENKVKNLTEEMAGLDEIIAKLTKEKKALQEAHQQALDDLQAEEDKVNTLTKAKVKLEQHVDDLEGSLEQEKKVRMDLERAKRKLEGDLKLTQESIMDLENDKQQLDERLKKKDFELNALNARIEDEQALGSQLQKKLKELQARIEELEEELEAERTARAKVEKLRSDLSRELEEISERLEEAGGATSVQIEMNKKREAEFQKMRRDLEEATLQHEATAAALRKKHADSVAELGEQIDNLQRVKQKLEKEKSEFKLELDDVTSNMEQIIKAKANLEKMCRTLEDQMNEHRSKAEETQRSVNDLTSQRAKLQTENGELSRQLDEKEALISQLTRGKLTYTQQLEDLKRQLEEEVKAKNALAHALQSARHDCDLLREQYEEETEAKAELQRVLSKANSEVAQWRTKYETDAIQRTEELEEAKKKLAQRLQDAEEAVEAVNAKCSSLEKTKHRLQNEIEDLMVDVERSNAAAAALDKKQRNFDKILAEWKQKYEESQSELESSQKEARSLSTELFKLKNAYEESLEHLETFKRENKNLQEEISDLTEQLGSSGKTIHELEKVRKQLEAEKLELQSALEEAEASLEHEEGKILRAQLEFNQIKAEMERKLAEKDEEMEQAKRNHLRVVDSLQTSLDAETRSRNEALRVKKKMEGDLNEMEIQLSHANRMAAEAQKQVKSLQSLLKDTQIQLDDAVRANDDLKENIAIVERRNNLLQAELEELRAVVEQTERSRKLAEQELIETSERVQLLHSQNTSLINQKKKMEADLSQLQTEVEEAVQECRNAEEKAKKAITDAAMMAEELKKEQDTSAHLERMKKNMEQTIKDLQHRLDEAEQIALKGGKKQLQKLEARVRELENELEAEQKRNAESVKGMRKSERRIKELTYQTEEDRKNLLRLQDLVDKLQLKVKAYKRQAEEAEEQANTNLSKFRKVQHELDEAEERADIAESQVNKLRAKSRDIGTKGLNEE

Rabbit Psoas IC25 [1] | Porcine Atria IC25 (Porcine Atria myofibrils) | Porcine Ventricle IC25 [2] | Compound
20.8 nM | 120 nM | 167.3 nM | C[C@H](NC(=O)CN1Cc2c(F)cccc2NC1=O)c1ccc(C#N)cc1F [Compound B114]
100000 nM | 100000 nM | 100000 nM | C[C@@H](NC(=O)CN1Cc2c(C#N)cccc2NC1=O)c1ccc(C#N)cn1 [Compound B115]
74.3 nM | 220 nM | 672.1 nM | C[C@H](NC(=O)CN1Cc2c(C#N)cccc2NC1=O)c1ccc(C#N)cn1 [Compound B116, 2-(5-Cyano-2-oxo-1,4-dihydroquinazolin-3-yl)-N-[(1S)-1-(5-cyanopyridin-2-yl)ethyl]acetamide]
236.6 nM | 150 nM | 1967 nM | N#Cc1cc(F)c2c(c1)OC[C@H]2NC(=O)CN1Cc2c(ccc(F)c2C#N)NC1=O [Compound B117]
13.6 nM | 70 nM | 110 nM | N#Cc1cc(F)c2c(c1)OC[C@@H]2NC(=O)CN1Cc2c(ccc(F)c2C#N)NC1=O [Compound B118]
67.7 nM | 120 nM | 166.5 nM | N#Cc1ccc2c(c1)C1(CC1)N(CC(=O)N[C@@H]1COc3cc(F)cc(F)c31)C(=O)N2 [Compound B121]
100000 nM | 1310 nM | 100000 nM | N#Cc1ccc2c(c1)C1(CC1)N(CC(=O)N[C@H]1COc3cc(F)cc(F)c31)C(=O)N2 [Compound B122]
326.2 nM | 360 nM | 1870 nM | N#Cc1cc(F)c2c(c1)OC[C@@H]2NC(=O)CN1Cc2c(ccc(F)c2F)NC1=O [Compound B124]
1552 nM | 1620 nM | 100000 nM | C[C@@H](NC(=O)CN1Cc2c(C#N)cccc2NC1=O)c1ncc(C#N)cc1F [Compound B125]
40.06 nM | 70 nM | 346.1 nM | C[C@H](NC(=O)CN1Cc2c(C#N)cccc2NC1=O)c1ncc(C#N)cc1F [Compound B126]
3992 nM | 260 nM | 100000 nM | C[C@@H](NC(=O)CN1Cc2c(ccc(C#N)c2F)NC1=O)c1ccc(C#N)cc1F [Compound B129]
345.6 nM | 100000 nM | 100000 nM | C[C@@H](NC(=O)CN1Cc2c(ccc(F)c2C#N)NC1=O)c1ncc(C#N)cc1F [Compound B131]
31.3 nM | 80 nM | 171.5 nM | C[C@H](NC(=O)CN1Cc2c(ccc(F)c2C#N)NC1=O)c1ncc(C#N)cc1F [Compound B132]

Further lines, the molecule ahead of its results:

Compound | Rabbit Psoas IC25 [1] | Porcine Atria IC25 (Porcine Atria myofibrils) | Porcine Ventricle IC25 [2]
Cc1cc(C#N)ncc1[C@@H](C)NC(=O)CN1Cc2c(ccc(F)c2F)NC1=O [Compound B83] | 21.4 nM | 40 nM | 51.9 nM
C[C@@H](NC(=O)CN1Cc2c(ccc(F)c2F)NC1=O)c1nc(-c2ccc(F)cn2)no1 [Compound B85] | 4582 nM | 390 nM | 28590 nM
C[C@H](NC(=O)CN1Cc2c(ccc(F)c2F)NC1=O)c1nc(-c2ccc(F)cn2)no1 [Compound B86] | 100000 nM | 100000 nM | 100000 nM
O=C(CN1Cc2c(ccc(F)c2F)NC1=O)N[C@H]1COc2ccc(F)cc2C1 [Compound B88] | 100000 nM | 460 nM | 2339 nM
N#Cc1cnc2c(c1)CC[C@H]2NC(=O)CN1Cc2c(ccc(F)c2F)NC1=O [Compound B89, N-[(7R)-3-Cyano-5H,6H,7H-cyclopenta[b]pyridin-7-yl]-2-(5,6-difluoro-2-oxo-1,4-dihydroquinazolin-3-yl)acetamide] | 78.47 nM | 70 nM | 246.9 nM
N#Cc1cnc2c(c1)CC[C@@H]2NC(=O)CN1Cc2c(ccc(F)c2F)NC1=O [Compound B90] | 100000 nM | 10980 nM | 100000 nM
C[C@@H](NC(=O)CN1Cc2c(ccc(F)c2F)NC1=O)c1cnc(C#N)cn1 [Compound B91] | 391.3 nM | 140 nM | 783 nM
C[C@H](NC(=O)CN1Cc2c(ccc(F)c2F)NC1=O)c1cnc(C#N)cn1 [Compound B92] | 19.09 nM | 30 nM | 51.26 nM
C[C@@H](NC(=O)CN1Cc2c(ccc(F)c2F)NC1=O)c1ccc(Cl)cn1 [Compound B93] | 11450 nM | 1260 nM | 5574 nM
C[C@H](NC(=O)CN1Cc2c(ccc(F)c2F)NC1=O)c1ccc(Cl)cn1 [Compound B94] | 129.4 nM | 90 nM | 543.8 nM
C[C@@H](NC(=O)CN1Cc2c(ccc(F)c2F)NC1=O)c1nnc(-c2ccccc2F)s1 [Compound B95] | 100000 nM | 1560 nM | 100000 nM
C[C@H](NC(=O)CN1Cc2c(ccc(F)c2F)NC1=O)c1nnc(-c2ccccc2F)s1 [Compound B96] | 21880 nM | 1910 nM | 100000 nM
C[C@@H](NC(=O)CN1Cc2c(ccc(F)c2F)NC1=O)c1nnc2c(Cl)cc(C(F)(F)F)cn12 [Compound B97] | 8892 nM | 1430 nM | 4796 nM
C[C@H](NC(=O)CN1Cc2c(ccc(F)c2F)NC1=O)c1nnc2c(Cl)cc(C(F)(F)F)cn12 [Compound B98] | 93470 nM | 100000 nM | 72380 nM
C[C@@H](NC(=O)CN1Cc2c(ccc(F)c2F)NC1=O)c1ccncc1F [Compound B99] | 100000 nM | 700 nM | 100000 nM
C[C@H](NC(=O)CN1Cc2c(ccc(F)c2F)NC1=O)c1ccncc1F [Compound B100] | 124.6 nM | 30 nM | 740.9 nM
O=C(CN1Cc2c(ccc(F)c2F)NC1=O)N[C@@H]1COc2c(F)cc(F)cc2C1 [Compound B101] | 1059 nM | 150 nM | 575.9 nM
O=C(CN1Cc2c(ccc(F)c2F)NC1=O)N[C@H]1COc2c(F)cc(F)cc2C1 [Compound B102] | 7621 nM | 100 nM | 6262 nM
C[C@@H](NC(=O)CN1Cc2c(ccc(F)c2F)NC1=O)c1c(F)cncc1F [Compound B103] | 426 nM | 30 nM | 1132 nM
C[C@H](NC(=O)CN1Cc2c(ccc(F)c2F)NC1=O)c1c(F)cncc1F [Compound B104] | 100000 nM | 2790 nM | 100000 nM
C[C@@H](NC(=O)CN1Cc2c(ccc(F)c2F)NC1=O)c1ncc(C#N)cn1 [Compound B105] | 4205 nM | 110 nM | 6381 nM
C[C@H](NC(=O)CN1Cc2c(ccc(F)c2F)NC1=O)c1ncc(C#N)cn1 [Compound B106] | 302.8 nM | 90 nM | 476.5 nM
C[C@@H](NC(=O)CN1Cc2c(ccc(F)c2F)NC1=O)c1ccc(C(F)(F)F)cn1 [Compound B107] | 100000 nM | 100000 nM | 100000 nM
C[C@H](NC(=O)CN1Cc2c(ccc(F)c2F)NC1=O)c1ccc(C(F)(F)F)cn1 [Compound B108] | 1400 nM | 460 nM | 3587 nM
C[C@@H](NC(=O)CN1Cc2c(ccc(F)c2F)NC1=O)c1ncncc1F [Compound B109] | 13900 nM | 12190 nM | 100000 nM
C[C@H](NC(=O)CN1Cc2c(ccc(F)c2F)NC1=O)c1ncncc1F [Compound B110] | 55.8 nM | 40 nM | 559.5 nM
C[C@@H](NC(=O)CN1Cc2c(ccc(F)c2C#N)NC1=O)c1ccc(C#N)cn1 [Compound B111] | 564 nM | 100000 nM | 100000 nM
C[C@H](NC(=O)CN1Cc2c(ccc(F)c2C#N)NC1=O)c1ccc(C#N)cn1 [Compound B112] | 79 nM | 1510 nM | 2318 nM
C[C@@H](NC(=O)CN1Cc2c(F)cccc2NC1=O)c1ccc(C#N)cc1F [Compound B113] | 90.89 nM | 160 nM | 233 nM
